# Experimental data published in article PMC5926424 (Japanese Journal of Cancer Research : Gann, 2000).
# Where two headings read alike, the source gives them in different places.
# What was measured:
# T.Tn cells = assay type: cell-based; details: for ATX-S10(Na) uptake: 3 h
# LDL = details: cited from earlier work
# HDL = details: cited from earlier work
# albumin = details: cited from earlier work
# [1] = T.Tn cells, 50 μg/ml ATX-S10(Na), 10% FCS, 37C, Fig. 4
structure (smiles),measurement,setting,value
CCN(CC)CCCC(C)Nc1ccnc2cc(Cl)ccc12 (stereo not shown) [chloroquine],Effect of endocytosis inhibitor on cellular uptake of ATX-S10(Na),T.Tn cells,partially but significantly inhibited
"C=Cc1c(C)c2cc3nc(c(CC(=O)N[C@@H](CC(=O)O)C(=O)O)c4[nH]c(cc5nc(cc1[nH]2)C(C)=C5CC)c(C)c4C(=O)O)[C@@H](CCC(=O)O)[C@@H]3C [NPe6, N-aspartyl chlorin-e6]",Fraction bound to LDL,LDL,1%
same,Fraction bound to HDL,HDL,19%
same,Fraction bound to albumin,albumin,80%
CC[C@@]1([C@@H]2O[C@@H]([C@H]3O[C@@](O)(CO)[C@H](C)C[C@@H]3C)C[C@@H]2C)CC[C@H]([C@]2(C)CC[C@]3(C[C@H](O)[C@@H](C)[C@@H]([C@@H](C)[C@@H](OC)[C@H](C)C(=O)O)O3)O2)O1 [monensin],Effect of endocytosis inhibitor on cellular uptake of ATX-S10(Na),T.Tn cells; [1],partially but significantly inhibited
O=CC(=O)c1ccccc1 [phenylglyoxal],Effect of endocytosis inhibitor on cellular uptake of ATX-S10(Na),T.Tn cells; [1],partially but significantly inhibited
CCCN(CCC)S(=O)(=O)c1ccc(C(=O)O)cc1 [Probenecid],ATX-S10(Na) uptake,T.Tn cells; 30 µM,112.3 % of control
same,ATX-S10(Na) uptake,T.Tn cells; 100 µM,105.5 % of control
same,ATX-S10(Na) uptake,T.Tn cells; 300 µM,113.1 % of control
same,ATX-S10(Na) uptake,T.Tn cells; 1000 µM,115.7 % of control
